Assay results: the supplement of paper PMC10307832

Key:
Test in all cases: relative viability (nuclei count vs DMSO), 5 days (fraction); higher = more cells survive
AZD1208 + Phenformin = compound: N[C@@H]1CCCN(c2c(/C=C3\SC(=O)NC3=O)cccc2-c2ccccc2)C1 [AZD1208] + N=C(N)NC(=N)NCCc1ccccc1 [Phenformin] (partner 250 µM)
Method in brief: (§1)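 Cells from lung cancer lines were seeded into 1536-well plates and, one day later, dosed by pin tool. Treatments were either a single drug or a fixed dose of an anchor drug with five library-drug doses (not always all listed) in √10 steps. After 5 days, nuclei were stained in a one-step fixation (final 0.05% Triton X-100, 1% formaldehyde, 1 ug/ml Hoechst) and counted on 4× images, and relative viability is the treated-to-vehicle nuclei ratio, as the median of duplicate plates.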

XMD14-99 + Dasatinib = compound: CN1CCN(CC1)C2=CC(=C(C=C2)NC3=NC(=C(S3)C(=O)C4=C(C=CC=C4Cl)Cl)N)OC [XMD14-99] + Cc1nc(Nc2ncc(C(=O)Nc3c(C)cccc3Cl)s2)cc(N2CCN(CCO)CC2)n1 [Dasatinib] (partner 0.075 µM)
Method in brief: as §1

AZD1208 + Foretinib = compound: N[C@@H]1CCCN(c2c(/C=C3\SC(=O)NC3=O)cccc2-c2ccccc2)C1 [AZD1208] + COc1cc2c(Oc3ccc(NC(=O)C4(C(=O)Nc5ccc(F)cc5)CC4)cc3F)ccnc2cc1OCCCN1CCOCC1 [Foretinib] (partner 0.25 µM)
Method in brief: as §1

XMD14-99 + Alpelisib = compound: CN1CCN(CC1)C2=CC(=C(C=C2)NC3=NC(=C(S3)C(=O)C4=C(C=CC=C4Cl)Cl)N)OC [XMD14-99] + Cc1nc(NC(=O)N2CCC[C@H]2C(N)=O)sc1-c1ccnc(C(C)(C)C(F)(F)F)c1 [Alpelisib] (partner 2 µM)
Method in brief: as §1

Cell Line	relative viability (AZD1208 + Phenformin; first compound 0.08 µM)	relative viability (AZD1208 + Phenformin; first compound 0.253 µM)	relative viability (AZD1208 + Phenformin; first compound 0.8 µM)	relative viability (AZD1208 + Phenformin; first compound 2.53 µM)	relative viability (AZD1208 + Phenformin; first compound 8 µM)	relative viability (XMD14-99 + Dasatinib; first compound 0.08 µM)	relative viability (XMD14-99 + Dasatinib; first compound 0.8 µM)	relative viability (XMD14-99 + Dasatinib; first compound 2.53 µM)	relative viability (XMD14-99 + Dasatinib; first compound 8 µM)	relative viability (AZD1208 + Foretinib; first compound 0.08 µM)	relative viability (AZD1208 + Foretinib; first compound 0.253 µM)	relative viability (AZD1208 + Foretinib; first compound 0.8 µM)	relative viability (AZD1208 + Foretinib; first compound 2.53 µM)	relative viability (AZD1208 + Foretinib; first compound 8 µM)	relative viability (XMD14-99 + Alpelisib; first compound 0.08 µM)	relative viability (XMD14-99 + Alpelisib; first compound 0.8 µM)	relative viability (XMD14-99 + Alpelisib; first compound 2.53 µM)	relative viability (XMD14-99 + Alpelisib; first compound 8 µM)
201T	0.434	0.444	0.429	0.427	0.351	0.593	0.618	0.546	0.523	1.06	1.12	1.07	1.06	1	0.998	1	0.841	0.952
A549	0.157	0.172	0.168	0.132	0.127					0.808	1.05	0.824	0.927	0.708	0.749	0.759	0.641	0.576
A-427	0.318	0.367	0.257	0.323	0.262	0.624	0.651	0.545	0.479	0.924	1.01	0.905	0.865	0.813	1.09	1.08	0.954	0.9
ABC-1	0.232	0.238	0.212	0.229	0.2	0.555	0.689	0.483	0.46	1.16	1.02	1.13	0.92	0.967	1.03	0.985	0.927	0.747
BEN	0.269	0.267	0.244	0.259	0.269	0.29	0.36	0.25	0.244	0.609	0.602	0.47	0.571	0.459	0.94	0.936	0.854	0.801
